Assay results: ChEMBL document CHEMBL1201862, “PubChem BioAssay data set” (2004)
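Five compound concentrations were applied to cells in 96-well plates for 48 hours; endpoints were derived by simple linear interpolation of the resulting dose-response curve. GI50 marks 50% less growth.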 The source made the active and inactive calls. Cut-off read from the data, not from the text of the source: active = GI50 up to about 1.1 µM and inactive = higher.

How the values were obtained:
Assay in all cases: NCI-60 cell line screen, 48 h
UACC-62 = system: UACC-62
OVCAR-4 = system: OVCAR-4
HCT-116 = system: HCT-116
PC-3 = system: PC-3
BT-549 = system: BT-549
A498 = system: A498
OVCAR-3 = system: OVCAR-3
DU-145 = system: DU-145
M14 = system: M14
UACC-257 = system: UACC-257
MDA-N = system: MDA-N
HL-60 = system: HL-60
RPMI-8226 = system: RPMI-8226
SF-539 = system: SF-539
EKVX = system: EKVX
UO-31 = system: UO-31
TK-10 = system: TK-10
SR = system: SR
MOLT-4 = system: MOLT-4
NCI-H522 = system: NCI-H522

| Compound | GI50 (UACC-62) | GI50 (OVCAR-4) | GI50 (HCT-116) | GI50 (PC-3) | GI50 (BT-549) | GI50 (A498) | GI50 (OVCAR-3) | GI50 (DU-145) | GI50 (M14) | GI50 (UACC-257) | GI50 (MDA-N) | GI50 (HL-60) | GI50 (RPMI-8226) | GI50 (SF-539) | GI50 (EKVX) | GI50 (UO-31) | GI50 (TK-10) | GI50 (SR) | GI50 (MOLT-4) | GI50 (NCI-H522) |
| --- | --- | --- | --- | --- | --- | --- | --- | --- | --- | --- | --- | --- | --- | --- | --- | --- | --- | --- | --- | --- |
| CN(C)CC(O)CNC(=O)Nc1ccccc1 (stereo unspecified) | > 100 µM (inactive) | > 100 µM (inactive) | > 100 µM (inactive) | > 100 µM (inactive) | > 100 µM (inactive) | > 100 µM (inactive) | > 100 µM (inactive) | > 100 µM (inactive) | > 100 µM (inactive) | > 100 µM (inactive) | > 100 µM (inactive) | > 100 µM (inactive) | > 100 µM (inactive) | > 100 µM (inactive) | > 100 µM (inactive) | > 100 µM (inactive) | > 100 µM (inactive) | – | – | – |
| Clc1ccc(-c2ccc(-c3nnc(COc4ccc(OCc5nnc(-c6ccc(-c7ccc(Cl)cc7Cl)o6)o5)c(Cl)c4)o3)o2)c(Cl)c1 | > 100 µM (inactive) | > 100 µM (inactive) | > 100 µM (inactive) | – | > 100 µM (inactive) | > 100 µM (inactive) | > 100 µM (inactive) | > 100 µM (inactive) | > 100 µM (inactive) | > 100 µM (inactive) | > 100 µM (inactive) | > 100 µM (inactive) | > 100 µM (inactive) | – | > 100 µM (inactive) | > 100 µM (inactive) | 84.5 µM (inactive) | 28.8 µM (inactive) | 28.4 µM (inactive) | > 100 µM (inactive) |
| CC12CC(c3ccccc3O1)C(C(=O)Nc1ccc(Cl)cc1Cl)C(=O)N2 (stereo unspecified) | > 100 µM (inactive) | 19.6 µM (inactive) | 34.3 µM (inactive) | 44 µM (inactive) | 89.3 µM (inactive) | – | 38 µM (inactive) | 27.6 µM (inactive) | 18 µM (inactive) | > 100 µM (inactive) | > 100 µM (inactive) | 3.34 µM (inactive) | 44 µM (inactive) | 45.4 µM (inactive) | 18.3 µM (inactive) | 19.2 µM (inactive) | – | – | 19.1 µM (inactive) | 56.8 µM (inactive) |
| O=C(NCCC1CN(S(=O)(=O)C(F)(F)F)c2ccccc21)OCc1ccccc1 (stereo unspecified) | > 100 µM (inactive) | > 100 µM (inactive) | > 100 µM (inactive) | > 100 µM (inactive) | > 100 µM (inactive) | > 100 µM (inactive) | > 100 µM (inactive) | > 100 µM (inactive) | > 100 µM (inactive) | > 100 µM (inactive) | – | – | > 100 µM (inactive) | – | > 100 µM (inactive) | > 100 µM (inactive) | – | > 100 µM (inactive) | 59.2 µM (inactive) | 57 µM (inactive) |
| COC(=O)C(/C(=N/NC(=O)c1ccncc1)C(=O)Nc1ccccc1OC)c1nc2ccc(Cl)cc2nc1O (stereo unspecified) | > 100 µM (inactive) | 55 µM (inactive) | 83.4 µM (inactive) | > 100 µM (inactive) | > 100 µM (inactive) | > 100 µM (inactive) | > 100 µM (inactive) | – | > 100 µM (inactive) | > 100 µM (inactive) | 47.2 µM (inactive) | > 100 µM (inactive) | 75.5 µM (inactive) | > 100 µM (inactive) | 77.8 µM (inactive) | 47 µM (inactive) | > 100 µM (inactive) | 0.78 µM (active) | > 100 µM (inactive) | > 100 µM (inactive) |
| C=C1C(C)C2C(Cc3ccccc3)NC(=O)C23C(OC(C)=O)/C=C/C(C)(O)CC(C)C/C=C/C3C1O (stereo unspecified) | 18.2 µM (inactive) | 0.904 µM (active) | 4.53 µM (inactive) | – | 2.67 µM (inactive) | 0.117 µM (active) | 2.19 µM (inactive) | > 100 µM (inactive) | 99.1 µM (inactive) | 17.1 µM (inactive) | > 100 µM (inactive) | 5.02 µM (inactive) | 9.42 µM (inactive) | 0.0836 µM (active) | 1.72 µM (inactive) | 0.0618 µM (active) | 60.1 µM (inactive) | 27.5 µM (inactive) | 5.15 µM (inactive) | 2.26 µM (inactive) |
